Measurements published in US8778941B2, “TRPM8 antagonists and their use in treatments” (AMGEN Inc., priority 2011, dated 2014).

Target: T1, human TRPM8 (Homo sapiens, UniProt Q7Z2W7)
T1 construct: expressed in transfected cells; host or cells: Chinese hamster ovary (CHO) cells, T-REx tetracycline-inducible expression system (Invitrogen), co-transfected with pcDNA3.1 jellyfish aequorin
Assay: Luminescence readout assay for measuring intracellular calcium (aequorin), hTRPM8 antagonism
Type: cell-based
Conditions: CHO cell line expressing human TRPM8 and aequorin; activation by icilin, L-menthol or cold buffer (table does not say which)
Experimental: Luminescence Readout Assay for Measuring Intracellular Calcium.
A stable Chinese hamster ovary cell line expressing human TRPM8 was generated using tetracycline inducible T-REx™ expression system from Invitrogen, Inc. (Carlsbad, Calif.). […] Twenty four hours before the assay, cells were seeded in 96-well plates and TRPM8 expression was induced with 0.5 μg/mL tetracycline. […] Potential antagonists were added 2.5 min prior to the addition of agonist, […], 100 µM L-menthol, or 1 min prior to the addition of cold buffer (<10° C.). The luminescence was measured by a CCD camera based FLASH-luminometer built by Amgen, Inc. A cooling device attached to FLASH luminometer was used for cold activation.

T1 sequence (Q7Z2W7 whole entry): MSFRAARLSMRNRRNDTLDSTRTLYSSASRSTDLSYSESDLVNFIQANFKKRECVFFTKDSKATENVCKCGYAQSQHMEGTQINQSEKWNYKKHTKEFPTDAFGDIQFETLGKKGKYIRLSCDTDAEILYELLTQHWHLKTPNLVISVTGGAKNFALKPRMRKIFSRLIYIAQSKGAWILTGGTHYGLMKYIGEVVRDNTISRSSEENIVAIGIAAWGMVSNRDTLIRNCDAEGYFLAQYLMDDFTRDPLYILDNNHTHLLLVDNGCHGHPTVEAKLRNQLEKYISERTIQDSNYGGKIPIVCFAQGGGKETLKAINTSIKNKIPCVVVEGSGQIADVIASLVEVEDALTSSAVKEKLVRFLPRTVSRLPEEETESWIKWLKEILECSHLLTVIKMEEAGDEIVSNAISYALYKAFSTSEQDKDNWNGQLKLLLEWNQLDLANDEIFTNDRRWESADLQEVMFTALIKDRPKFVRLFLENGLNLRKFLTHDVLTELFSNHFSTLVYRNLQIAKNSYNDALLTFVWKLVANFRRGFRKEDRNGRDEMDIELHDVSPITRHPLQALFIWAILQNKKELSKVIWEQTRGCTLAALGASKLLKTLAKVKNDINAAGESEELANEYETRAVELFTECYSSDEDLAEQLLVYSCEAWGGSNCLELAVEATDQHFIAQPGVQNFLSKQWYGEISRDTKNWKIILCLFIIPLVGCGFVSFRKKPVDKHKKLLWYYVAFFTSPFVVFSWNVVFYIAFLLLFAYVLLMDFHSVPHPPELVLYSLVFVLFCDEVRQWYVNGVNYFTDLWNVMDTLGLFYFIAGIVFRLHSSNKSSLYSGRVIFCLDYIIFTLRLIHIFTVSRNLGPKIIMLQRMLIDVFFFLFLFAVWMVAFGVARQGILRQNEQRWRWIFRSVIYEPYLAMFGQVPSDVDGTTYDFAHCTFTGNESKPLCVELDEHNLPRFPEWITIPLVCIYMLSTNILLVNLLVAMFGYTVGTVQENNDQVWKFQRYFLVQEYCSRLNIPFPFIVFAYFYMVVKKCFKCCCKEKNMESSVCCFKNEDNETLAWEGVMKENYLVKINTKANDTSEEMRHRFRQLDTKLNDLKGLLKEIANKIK

SMILES | IC50 [µM]
O=C(Nc1ccc(F)c([N+](=O)[O-])c1)N[C@@H](c1ccc(C(F)(F)F)cc1)c1ncccc1C(F)(F)F [Example 139, (S)-1-(4-fluoro-3-nitrophenyl)-3-((4-(trifluoro-methyl)-phenyl)(3-(trifluoro-methyl)-pyridin-2-yl)-methyl)urea (2,2,2-trifluoro-acetate)] | 1.31
COc1ccc2cc([C@H](NC(=O)Nc3cccnc3)c3ncccc3C(F)(F)F)cnc2c1 [Example 18, (S)-1-((7-methoxy-quinolin-3-yl)-(3-(trifluoro-methyl)-pyridin-2-yl)-methyl)-3-(pyridin-3-yl)-urea] | 0.308
O=C(NCC1CCCCC1)N[C@@H](c1ccc(C(F)(F)F)cc1)c1ncccc1C(F)(F)F [Example 127, (S)-1-(cyclohexyl-methyl)-3-((4-(trifluoro-methyl)-phenyl)(3-(trifluoro-methyl)-pyridin-2-yl)-methyl)urea (2,2,2-trifluoro-acetate)] | 0.657
O=C(Nc1cccnc1)NC(c1ccc(C(F)(F)F)cc1)c1ccncc1Br (stereo not shown) [Example 120, 1-((3-bromopyridin-4-yl)(4-(trifluoro-methyl)-phenyl)-methyl)-3-(pyridin-3-yl)-urea (2,2,2-trifluoro-acetate)] | 2.85
COc1cccc(CCNC(=O)N[C@@H](c2ccc(C(F)(F)F)cc2)c2ncccc2C(F)(F)F)c1OC [Example 82, (S)-1-(2,3-dimethoxy-phenethyl)-3-((4-(trifluoro-methyl)-phenyl)(3-(trifluoro-methyl)-pyridin-2-yl)-methyl)urea (2,2,2-trifluoro-acetate)] | 0.559
CC(C)(C)Cc1cccnc1[C@@H](NC(=O)Nc1cccnc1)c1ccc(C(F)(F)F)cc1 [Example 62] | 1.93
O=C(Nc1cccnc1)N[C@@H](c1ccc(Cl)c(Cl)c1)c1ncccc1C(F)(F)F [Example 13, (S)-1-((3,4-dichlorophenyl) (3-(trifluoro-methyl)-pyridin-2-yl)-methyl)-3-(pyridin-3-yl)-urea] | 0.051
Cn1ccc(NC(=O)N[C@@H](c2ccc(C(F)(F)F)cc2)c2ncccc2F)cc1=O [Example 161, (S)-1-((3-fluoropyridin-2-yl)(4-(trifluoro-methyl)-phenyl)-methyl)-3-(1-methyl-2-oxo-1,2-dihydropyridin-4-yl)urea] | 1.25
CCCc1cccnc1[C@@H](NC(=O)Nc1cccnc1)c1ccc(C(F)(F)F)cc1 [Example 168, (S)-1-((3-Propylpyridin-2-yl)(4-(trifluoromethyl)phenyl)-methyl)-3-(pyridin-3-yl)urea] | 0.067
CC[C@H](C)C(NC(=O)N[C@@H](c1ccc(C(F)(F)F)cc1)c1ncccc1C(F)(F)F)C(=O)OC (stereo partly drawn) [Example 99, (3S)-methyl 3-methyl-2-(3-((S)-(4-(trifluoro-methyl)-phenyl)(3-(trifluoro-methyl)-pyridin-2-yl)-methyl)-ureido)-pentanoate (2,2,2-trifluoro-acetate)] | 0.712
CC(C)(C)NC(=O)N[C@@H](c1ccc(C(F)(F)F)cc1)c1ncccc1Br [Example 41, (S)-1-((3-bromopyridin-2-yl)(4-(trifluoro-methyl)-phenyl)-methyl)-3-(tert-butyl)-urea] | 0.122
CS(=O)(=O)c1cccc(NC(=O)N[C@@H](c2ccc(C(F)(F)F)cc2)c2ncccc2C(F)(F)F)c1 [Example 53, (S)-1-(3-(methylsulfonyl)phenyl)-3-((4-(trifluoro-methyl)-phenyl)(3-(trifluoro-methyl)-pyridin-2-yl)-methyl)urea] | 0.05
Cc1cc(C)c(NC(=O)N[C@@H](c2ccc(C(F)(F)F)cc2)c2ncccc2C(F)(F)F)c(C)c1 [Example 186, (S)-1-mesityl-3-((4-(trifluoro-methyl)phenyl) (3-(trifluoro-methyl)pyridin-2-yl)methyl)urea (2,2,2-trifluoro-acetate)] | 1.11
CC#Cc1cccnc1[C@@H](NC(=O)NC(C)(C)C)c1ccc(C(F)(F)F)cc1 [Example 42, (S)-1-(tert-butyl)-3-((3-(prop-1-yn-1-yl)pyridin-2-yl)(4-(trifluoro-methyl)-phenyl)-methyl)urea] | 0.107
CC(C)OC(=O)N[C@@H](c1ccc(OC(F)(F)F)c(F)c1)c1ncccc1F [Example 175, (S)-isopropyl ((3-fluoro-4-(trifluoromethoxy)phenyl)(3-fluoropyridin-2-yl)methyl)carbamate] | 0.068
O=C(NCc1ccc(Br)cc1)N[C@@H](c1ccc(C(F)(F)F)cc1)c1ncccc1C(F)(F)F [Example 125, (S)-1-(4-bromobenzyl)-3-((4-(trifluoro-methyl)-phenyl)(3-(trifluoro-methyl)-pyridin-2-yl)-methyl)urea (2,2,2-trifluoro-acetate)] | 0.561

SMILES | IC50 [µM]
O=C(Nc1cccnc1)N[C@@H](c1cnc2c(F)cccc2c1)c1ncccc1C(F)(F)F [Example 14, (S)-1-((8-fluoro-quinolin-3-yl)-(3-(trifluoro-methyl)-pyridin-2-yl)-methyl)-3-(pyridin-3-yl)-urea] | 0.533
O=C(Nc1cccnc1)NC(c1ccc(C(F)(F)F)cc1)c1cccnc1Br (stereo not shown) [Example 114, 1-((2-bromopyridin-3-yl)(4-(trifluoro-methyl)-phenyl)-methyl)-3-(pyridin-3-yl)-urea (2,2,2-trifluoro-acetate)] | 0.886
O=C(Nc1cccnc1)N[C@@H](c1cnc2cccc(Cl)c2c1)c1ncccc1C(F)(F)F [Example 10, (S)-1-((5-chloroquinolin-3-yl)(3-(trifluoro-methyl)-pyridin-2-yl)-methyl)-3-(pyridin-3-yl)-urea] | 0.172
C=C(C)c1cccc(C(C)(C)NC(=O)N[C@@H](c2ccc(C(F)(F)F)cc2)c2ncccc2C(F)(F)F)c1 [Example 105, (S)-1-(2-(3-(prop-1-en-2-yl)phenyl)-propan-2-yl)-3-((4-(trifluoro-methyl)-phenyl)(3-(trifluoro-methyl)-pyridin-2-yl)-methyl)urea (2,2,2-trifluoro-acetate)] | 0.545
CC(C)(C)NC(=O)N[C@@H](c1ccc(C(F)(F)F)cc1)c1ccccc1Br [Example 116, (S)-1-((2-bromophenyl) (4-(trifluoro-methyl)-phenyl)-methyl)-3-tert-butylurea] | 0.133
COc1ccc([C@H](C)NC(=O)N[C@@H](c2ccc(C(F)(F)F)cc2)c2ncccc2C(F)(F)F)cc1 [Example 80, 1-((S)-1-(4-methoxy-phenyl)ethyl)-3-((S)-(4-(trifluoro-methyl)-phenyl)(3-(trifluoro-methyl)-pyridin-2-yl)-methyl)urea (2,2,2-trifluoro-acetate)] | 0.399
CC(C)(C)NC(=O)N[C@@H](c1ccc(C(F)(F)F)cc1)c1ncccc1C(F)(F)F [Example 45, (S)-1-(tert-butyl)-3-((4-(trifluoro-methyl)-phenyl)(3-(trifluoro-methyl)-pyridin-2-yl)-methyl)urea] | 0.053
CSc1ccccc1NC(=O)N[C@@H](c1ccc(C(F)(F)F)cc1)c1ncccc1C(F)(F)F [Example 137, (S)-1-(2-(methylthio)-phenyl)-3-((4-(trifluoro-methyl)-phenyl)(3-(trifluoro-methyl)-pyridin-2-yl)-methyl)urea (2,2,2-trifluoro-acetate)] | 0.156
O=C(N[C@@H](c1ccc(C(F)(F)F)c(F)c1)c1ncccc1C(F)(F)F)N1CCOCC1 [Example 167, (S)—N-((3-Fluoro-4-(trifluoromethyl)phenyl)(3-(trifluoromethyl)pyridin-2-yl)methyl)morpholine-4-carboxamide 2,2,2-trifluoroacetate] | 0.328
COC(=O)c1cccc(NC(=O)N[C@@H](c2ccc(C(F)(F)F)cc2)c2ncccc2C(F)(F)F)c1 [Example 102, (S)-methyl 3-(3-((4-(trifluoro-methyl)-phenyl)(3-(trifluoro-methyl)-pyridin-2-yl)-methyl)-ureido)-benzoate (2,2,2-trifluoro-acetate)] | 0.262
O=C(Nc1ccc(=O)[nH]c1)N[C@@H](c1ccc(C(F)(F)F)cc1)c1ncccc1F [Example 165, (S)-1-((3-fluoropyridin-2-yl)(4-(trifluoro-methyl)-phenyl)-methyl)-3-(6-oxo-1,6-dihydropyridin-3-yl)urea] | 3.21
CCOC(=O)C(NC(=O)N[C@@H](c1ccc(C(F)(F)F)cc1)c1ncccc1C(F)(F)F)C(C)C (stereo partly drawn) [Example 98, ethyl 3-methyl-2-(3-((S)-(4-(trifluoro-methyl)-phenyl)(3-(trifluoro-methyl)-pyridin-2-yl)-methyl)-ureido)-butanoate (2,2,2-trifluoro-acetate)] | 2.22
CC(C)[C@H](C)NC(=O)N[C@@H](c1ccc(C(F)(F)F)cc1)c1ncccc1C(F)(F)F [Example 65, 1-((S)-3-methylbutan-2-yl)-3-((S)-(4-(trifluoro-methyl)-phenyl)(3-(trifluoro-methyl)-pyridin-2-yl)-methyl)urea (2,2,2-trifluoro-acetate)] | 0.141
O=C(Nc1cccs1)N[C@@H](c1ccc(C(F)(F)F)cc1)c1ncccc1C(F)(F)F [Example 113, (S)-1-(thiophen-2-yl)-3-((4-(trifluoro-methyl)-phenyl)(3-(trifluoro-methyl)-pyridin-2-yl)-methyl)urea (2,2,2-trifluoro-acetate)] | 0.175
COc1cc(CCNC(=O)N[C@@H](c2ccc(C(F)(F)F)cc2)c2ncccc2C(F)(F)F)cc(OC)c1 [Example 93, (S)-1-(3,5-dimethoxy-phenethyl)-3-((4-(trifluoro-methyl)-phenyl)(3-(trifluoro-methyl)-pyridin-2-yl)-methyl)urea (2,2,2-trifluoro-acetate)] | 1.44
